Results taken from patent US9487483B2, “Complement pathway modulators and uses thereof” (priority 2012, dated 2016).

Target: Recombinant human factor D (Homo sapiens (Human), UniProt P00746)
Test: biochemical
Type: biochemical
Conditions: Factor D inhibition data using Method 1; substrate Z-Lys-thiobenzyl, fluorescence readout; read-out: IC50
Procedure: Human Complement Factor D Assay: Method 1
Recombinant human factor D (expressed in E. coli and purified using standard methods) at 10 nM concentration is incubated with test compound at various concentrations for 1 hour at room temperature in 0.1 M Hepes buffer, pH 7.5, containing 1 mM MgCl2, 1 M NaCl and 0.05% CHAPS. […] IC50 values are calculated from percentage of inhibition of complement factor D-activity as a function of test compound concentration.

Chain of Recombinant human factor D (P00746 26-253): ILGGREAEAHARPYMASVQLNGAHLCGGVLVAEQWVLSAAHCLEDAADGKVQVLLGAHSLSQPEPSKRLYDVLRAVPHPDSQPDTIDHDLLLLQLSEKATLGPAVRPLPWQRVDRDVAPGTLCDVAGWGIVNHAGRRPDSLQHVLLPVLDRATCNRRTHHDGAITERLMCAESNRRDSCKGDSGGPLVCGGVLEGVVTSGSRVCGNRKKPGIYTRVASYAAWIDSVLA

SMILES	IC50 [nM]
CC[C@H]1CCC[C@@H](NC(=O)[C@@H]2C[C@H]3C[C@H]3N2C(=O)Cn2nc(C(N)=O)c3ccncc32)C1 [Example 73, 1-{2-[(1R,3S,5R)-3-((1R,3S)-3-ethyl-cyclohexylcarbamoyl)-2-aza-bicyclo[3.1.0]hex-2-yl]-2-oxo-ethyl}-1H-pyrazolo[3,4-c]pyridine-3-carboxylic acid amide]	29
NC(=O)c1nn(CC(=O)N2[C@@H]3C[C@@H]3C[C@H]2C(=O)NC2CCC(F)(F)C2)c2ccccc12 (stereo partly drawn) [Example 52, 1-{2-[(1R,3S,5R)-3-(3,3-Difluoro-cyclopentylcarbamoyl)-2-aza-bicyclo[3.1.0]hex-2-yl]-2-oxo-ethyl}-1H-indazole-3-carboxylic acid amide]	999
CC1(C)CCC[C@H](NC(=O)[C@@H]2C[C@@]3(CO)C[C@H]3N2C(=O)Cn2nc(C(N)=O)c3ccccc32)C1 [Example 112, 1-{2-[(1R,3S,5S)-3-((S)-3,3-Dimethyl-cyclohexylcarbamoyl)-5-hydroxymethyl-2-aza-bicyclo[3.1.0]hex-2-yl]-2-oxo-ethyl}-1H-indazole-3-carboxylic acid amide]	370
CO[C@H]1CCC[C@@H](NC(=O)[C@@H]2C[C@H]3C[C@H]3N2C(=O)Cn2nc(C(C)=O)c3cc(OCc4ncccn4)ccc32)C1 [Example 94, (1R,3S,5R)-2-{2-[3-Acetyl-5-(pyrimidin-2-ylmethoxy)-indazol-1-yl]-acetyl}2-aza-bicyclo[3.1.0]hexane-3-carboxylic acid ((1R,3S)-3-methoxy-cyclohexyl)-amide]	138
CC(=O)c1nn(CC(=O)N2[C@@H]3C[C@@H]3C[C@H]2C(=O)NC2CC2(C)C)c2ncccc12 (stereo partly drawn) [Example 2, (1R,3S,5R)-2-[2-(3-Acetyl-pyrazolo[3,4-b]pyridin-1-yl)-acetyl]-2-aza-bicyclo[3.1.0]hexane-3-carboxylic acid (2,2-dimethyl-cyclopropyl)-amide]	6900

Same assay, conditions: IC50, Factor D inhibition data using Method 1; substrate Z-Lys-thiobenzyl, fluorescence readout

SMILES	IC50 [nM]
CC1(C)CCC(NC(=O)[C@@H]2C[C@H]3C[C@H]3N2C(=O)Cn2nc(C(N)=O)c3ccncc32)C1 (single isomer, unassigned) [Example 68]	1920
NC(=O)c1nn(CC(=O)N2C[C@H](F)C[C@H]2C(=O)NC2CCCC3(CC3)C2)c2ccccc12 (single isomer, unassigned) [Example 93]	92
NC(=O)c1nn(CC(=O)N2[C@@H]3C[C@@H]3C[C@H]2C(=O)NC2CCCC3(CC3)C2)c2ccccc12 (single isomer, unassigned) [Example 58]	41

Same assay, conditions: read-out: IC50

SMILES	IC50 [nM]
CO[C@@H]1CCC[C@@H](NC(=O)[C@@H]2C[C@H]3C[C@H]3N2C(=O)Cn2nc(C(C)=O)c3ccccc32)C1 [Example 43, (1R,3S,5R)-2-[2-(3-Acetyl-indazol-1-yl)-acetyl]-2-aza-bicyclo[3.1.0]hexane-3-carboxylic acid ((1R,3R)-3-methoxy-cyclohexyl)-amide]	323
CC(=O)c1nn(CC(=O)N2[C@@H]3C[C@@H]3C[C@H]2C(=O)N[C@@H]2CC[C@@H](C(N)=O)C2)c2ncccc12 [Example 12, (1R,3S,5R)-2-[2-(3-Acetyl-pyrazolo[3,4-b]pyridin-1-yl)-acetyl]-2-aza-bicyclo[3.1.0]hexane-3-carboxylic acid ((1R,3R)-3-carbamoyl-cyclopentyl)-amide]	12700
Cc1cc2c(C(N)=O)nn(CC(=O)N3[C@@H]4C[C@@H]4C[C@H]3C(=O)NN3CCCC(C)(C)C3)c2cn1 [Example 29, 1{2-[(1R,3S,5R)-3-(3,3-Dimethyl-pipendin-1-ylcarbamoyl)-2-aza-bicyclo[3.1.0]hex-2-yl]-2-oxo-ethyl}-5-methyl-1H-pyrazolo[3,4-c] pyridine-3-carboxylic acid amide]	28
CC(=O)c1nn(CC(=O)N2[C@H](C(=O)N[C@H]3CCCC(C)(C)C3)C[C@@]3(CO)C[C@@H]23)c2cnccc12 [Example 122, (1R,3S,5S)-2-[2-(3-Acetyl-pyrazolo[3,4-c]pyridin-1-yl)-acetyl]-5-hydroxymethyl-2-aza-bicyclo[3.1.0]hexane-3-carboxylic acid ((S)-3,3-dimethyl-cyclohexyl)-amide]	2200
